Test system: 323965-272-R-J2-PDC complex spheroid growth, % test/control
Test: Anticancer human tumor 323965-272-R-J2-PDC patient-derived pancreatic carcinoma cell line growth inhibition [Asc]
Conditions: for IC50: curve of first compound; for viability, T/C: stronger effect = lower value
Outline: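 Spheroid model: tumor line + HUVEC + hMSC. Single agents and combinations; top conc. at/near clinical Cmax (10 microM if undetermined), half-log dilutions. DMSO stocks at 800-fold test concentration.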

[1] = second compound 0.00316 µM, first compound 0.0316 µM
[2] = second compound 0.00316 µM, first compound 0.1 µM
[3] = second compound 0.01 µM, first compound 0.0316 µM
[4] = second compound 0.01 µM, first compound 0.1 µM
[5] = second compound 0.0316 µM, first compound 0.0316 µM
[6] = second compound 0.0316 µM, first compound 0.1 µM
[7] = second compound 0.1 µM, first compound 0.0316 µM
[8] = second compound 0.1 µM, first compound 0.1 µM
[9] = second compound 0.316 µM, first compound 0.0316 µM
[10] = second compound 0.316 µM, first compound 0.1 µM
[11] = second compound 1 µM, first compound 0.0316 µM
[12] = second compound 1 µM, first compound 0.1 µM
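Note: compound exposure lasted 7 days starting three days after spheroid seeding.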
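Throughout, for viability, T/C: 100% = DMSO vehicle control wells with viability set relative to vehicle.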

Cc1nc(N2CCC3(CC2)COC(C)C3N)c(CO)nc1Sc1ccnc(N)c1Cl (stereo unspecified) + CCN1C(C(=O)NC23CCC(C(=O)O)(CC2)CC3)C(c2cccc(Cl)c2F)C2(C(=O)Nc3cc(Cl)ccc32)C12CCCCC2
IC50 (second compound 0.00949 µM): 1560 nM
IC50 (second compound 0.03 µM): > 3000 nM
IC50 (second compound 0.0949 µM): > 3000 nM
IC50 (second compound 0.3 µM): 1700 nM
IC50 (second compound 0.949 µM): 1640 nM
IC50 (second compound 3 µM): 929 nM
viability, T/C (second compound 0.00949 µM, first compound 0.00949 µM): 107%
viability, T/C (second compound 0.00949 µM, first compound 0.03 µM): 89%
viability, T/C (second compound 0.00949 µM, first compound 0.0949 µM): 85.4%
viability, T/C (second compound 0.00949 µM, first compound 0.3 µM): 62.7%
viability, T/C (second compound 0.00949 µM, first compound 0.949 µM): 57.3%
viability, T/C (second compound 0.00949 µM, first compound 3 µM): 42.9%
viability, T/C (second compound 0.03 µM, first compound 0.00949 µM): 104%
viability, T/C (second compound 0.03 µM, first compound 0.03 µM): 91.8%
viability, T/C (second compound 0.03 µM, first compound 0.0949 µM): 80.4%
viability, T/C (second compound 0.03 µM, first compound 0.3 µM): 67.8%
viability, T/C (second compound 0.03 µM, first compound 0.949 µM): 59%
viability, T/C (second compound 0.03 µM, first compound 3 µM): 50.4%
viability, T/C (second compound 0.0949 µM, first compound 0.00949 µM): 109%
viability, T/C (second compound 0.0949 µM, first compound 0.03 µM): 84.9%
viability, T/C (second compound 0.0949 µM, first compound 0.0949 µM): 86.1%
viability, T/C (second compound 0.0949 µM, first compound 0.3 µM): 65.3%
viability, T/C (second compound 0.0949 µM, first compound 0.949 µM): 61.7%
viability, T/C (second compound 0.0949 µM, first compound 3 µM): 51.2%
viability, T/C (second compound 0.3 µM, first compound 0.00949 µM): 102%
viability, T/C (second compound 0.3 µM, first compound 0.03 µM): 86.3%
viability, T/C (second compound 0.3 µM, first compound 0.0949 µM): 82.7%
viability, T/C (second compound 0.3 µM, first compound 0.3 µM): 68.6%
viability, T/C (second compound 0.3 µM, first compound 0.949 µM): 54.2%
viability, T/C (second compound 0.3 µM, first compound 3 µM): 44.6%
viability, T/C (second compound 0.949 µM, first compound 0.00949 µM): 105%
viability, T/C (second compound 0.949 µM, first compound 0.03 µM): 95.8%
viability, T/C (second compound 0.949 µM, first compound 0.0949 µM): 88.3%
viability, T/C (second compound 0.949 µM, first compound 0.3 µM): 63.6%
viability, T/C (second compound 0.949 µM, first compound 0.949 µM): 57.8%
viability, T/C (second compound 0.949 µM, first compound 3 µM): 44.2%
viability, T/C (second compound 3 µM, first compound 0.00949 µM): 91.2%
viability, T/C (second compound 3 µM, first compound 0.03 µM): 83.3%
viability, T/C (second compound 3 µM, first compound 0.0949 µM): 71.7%
viability, T/C (second compound 3 µM, first compound 0.3 µM): 60%
viability, T/C (second compound 3 µM, first compound 0.949 µM): 53.6%
viability, T/C (second compound 3 µM, first compound 3 µM): 35.4%

Cn1ncnc1[C@H]1c2n[nH]c(=O)c3cc(F)cc(c23)N[C@@H]1c1ccc(F)cc1 + CNC(C)C(=O)NC1CN(S(=O)(=O)c2cccc(S(=O)(=O)N3CCC4CCC(C(=O)NC(c5ccccc5)c5ccccc5)N4C(=O)C(NC(=O)C(C)NC)C3)c2)CCC2CCC(C(=O)NC(c3ccccc3)c3ccccc3)N2C1=O
IC50 (second compound 0.00316 µM): < 0.316 nM
IC50 (second compound 0.01 µM): > 100 nM
IC50 (second compound 0.0316 µM): > 100 nM
IC50 (second compound 0.1 µM): > 100 nM
IC50 (second compound 0.316 µM): > 100 nM
IC50 (second compound 1 µM): > 100 nM
viability, T/C (second compound 0.00316 µM, first compound 0.000316 µM): 49.4%
viability, T/C (second compound 0.00316 µM, first compound 0.001 µM): 49.2%
viability, T/C (second compound 0.00316 µM, first compound 0.00316 µM): 46.2%
viability, T/C (second compound 0.00316 µM, first compound 0.01 µM): 47.6%
viability, T/C [1]: 49.5%
viability, T/C [2]: 47.7%
viability, T/C (second compound 0.01 µM, first compound 0.000316 µM): 119%
viability, T/C (second compound 0.01 µM, first compound 0.001 µM): 92.3%
viability, T/C (second compound 0.01 µM, first compound 0.00316 µM): 97.3%
viability, T/C (second compound 0.01 µM, first compound 0.01 µM): 90.1%
viability, T/C [3]: 87.8%
viability, T/C [4]: 85.5%
viability, T/C (second compound 0.0316 µM, first compound 0.000316 µM): 107%
viability, T/C (second compound 0.0316 µM, first compound 0.001 µM): 93.8%
viability, T/C (second compound 0.0316 µM, first compound 0.00316 µM): 87.6%
viability, T/C (second compound 0.0316 µM, first compound 0.01 µM): 105%
viability, T/C [5]: 92%
viability, T/C [6]: 91%
viability, T/C (second compound 0.1 µM, first compound 0.000316 µM): 94.3%
viability, T/C (second compound 0.1 µM, first compound 0.001 µM): 106%
viability, T/C (second compound 0.1 µM, first compound 0.00316 µM): 112%
viability, T/C (second compound 0.1 µM, first compound 0.01 µM): 97.6%
viability, T/C [7]: 84%
viability, T/C [8]: 91.7%
viability, T/C (second compound 0.316 µM, first compound 0.000316 µM): 103%
viability, T/C (second compound 0.316 µM, first compound 0.001 µM): 89.8%
viability, T/C (second compound 0.316 µM, first compound 0.00316 µM): 101%
viability, T/C (second compound 0.316 µM, first compound 0.01 µM): 92.7%
viability, T/C [9]: 88.2%
viability, T/C [10]: 89%
viability, T/C (second compound 1 µM, first compound 0.000316 µM): 87.5%
viability, T/C (second compound 1 µM, first compound 0.001 µM): 90.7%
viability, T/C (second compound 1 µM, first compound 0.00316 µM): 94.4%
viability, T/C (second compound 1 µM, first compound 0.01 µM): 83.7%
viability, T/C [11]: 89.7%
viability, T/C [12]: 86.3%

O=C(c1cc(Cc2n[nH]c(=O)c3ccccc23)ccc1F)N1CCN(C(=O)C2CC2)CC1 + CNC(C)C(=O)NC1CN(S(=O)(=O)c2cccc(S(=O)(=O)N3CCC4CCC(C(=O)NC(c5ccccc5)c5ccccc5)N4C(=O)C(NC(=O)C(C)NC)C3)c2)CCC2CCC(C(=O)NC(c3ccccc3)c3ccccc3)N2C1=O
IC50 (second compound 0.00316 µM): < 31.6 nM
IC50 (second compound 0.01 µM): > 10000 nM
IC50 (second compound 0.0316 µM): > 10000 nM
IC50 (second compound 0.1 µM): > 10000 nM
IC50 (second compound 0.316 µM): > 10000 nM
IC50 (second compound 1 µM): > 10000 nM
viability, T/C [1]: 43.1%
viability, T/C [2]: 45.3%
viability, T/C (second compound 0.00316 µM, first compound 0.316 µM): 41%
viability, T/C (second compound 0.00316 µM, first compound 1 µM): 47.4%
viability, T/C (second compound 0.00316 µM, first compound 3.16 µM): 44.6%
viability, T/C (second compound 0.00316 µM, first compound 10 µM): 36.6%
viability, T/C [3]: 99.4%
viability, T/C [4]: 101%
viability, T/C (second compound 0.01 µM, first compound 0.316 µM): 97.5%
viability, T/C (second compound 0.01 µM, first compound 1 µM): 94.5%
viability, T/C (second compound 0.01 µM, first compound 3.16 µM): 75.9%
viability, T/C (second compound 0.01 µM, first compound 10 µM): 72%
viability, T/C [5]: 101%
viability, T/C [6]: 99.4%
viability, T/C (second compound 0.0316 µM, first compound 0.316 µM): 100%
viability, T/C (second compound 0.0316 µM, first compound 1 µM): 105%
viability, T/C (second compound 0.0316 µM, first compound 3.16 µM): 102%
viability, T/C (second compound 0.0316 µM, first compound 10 µM): 70.7%
viability, T/C [7]: 92.6%
viability, T/C [8]: 91.9%
viability, T/C (second compound 0.1 µM, first compound 0.316 µM): 89.7%
viability, T/C (second compound 0.1 µM, first compound 1 µM): 99.3%
viability, T/C (second compound 0.1 µM, first compound 3.16 µM): 94.5%
viability, T/C (second compound 0.1 µM, first compound 10 µM): 71.9%
viability, T/C [9]: 93.4%
viability, T/C [10]: 89.1%
viability, T/C (second compound 0.316 µM, first compound 0.316 µM): 97.9%
viability, T/C (second compound 0.316 µM, first compound 1 µM): 89.7%
viability, T/C (second compound 0.316 µM, first compound 3.16 µM): 93.7%
viability, T/C (second compound 0.316 µM, first compound 10 µM): 80%
viability, T/C [11]: 94.5%
viability, T/C [12]: 87%
viability, T/C (second compound 1 µM, first compound 0.316 µM): 83.3%
viability, T/C (second compound 1 µM, first compound 1 µM): 93.1%
viability, T/C (second compound 1 µM, first compound 3.16 µM): 89.2%
viability, T/C (second compound 1 µM, first compound 10 µM): 68.3%

Source: PubChem BioAssay AID1963425 (Molecular Pharmacology Branch, DTP, NCI, 2024)
